According to US7511145B2 (Genelabs Technologies, Inc., priority 2003, dated 2009):

Target: T1, HCV-NS5b (Hepatitis C virus genotype 1b, UniProt Q9WMX2)
T1 construct: (His)6 (C); made in house; host or cells: XL-1 cells (E. coli), IPTG-inducible plasmid, nickel-NTA purification
Experiment: HCV-NS5b enzyme assay (incorporation of radiolabeled UTP)
Type: biochemical
Conditions: for inhibition at 33 µM: enzyme inhibition at compound concentration of 33 uM; for inhibition at 100 µM: read-out: % inh@100, enzyme inhibition at compound concentration of 100 uM
Outline: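 His6-tagged NS5b lacking the C-terminal 21 residues, expressed in XL-1 and Ni-NTA purified. Reaction at pH 7.5 with 5 mM MgCl2, 10 μM each NTP including [3H]-UTP and biotinylated HCV heteropolymeric template, 2 h at 37° C; SPA read-out; % inhibition at 100 and 33 uM versus no-compound control, background subtracted.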

SMILES: COc1cccc(-c2ccc3cc(-c4nc5cc(C(=O)O)ccc5n4C4CCCCC4)ccc3n2)c1 [Compound 486, 1-Cyclohexyl-2-[2-(3-methoxy-phenyl)-quinolin-6-yl]-1H-benzoimidazole-5-carboxylic acid]
- inhibition at 33 µM: 93.5%
- inhibition at 100 µM: 97.9%

SMILES: O=C(O)[C@@H]1C[C@@H](O)CN1C(=O)c1ccc2c(c1)nc(-c1ccc3nc(-c4ccccc4)cnc3c1)n2C1CCCCC1 [Compound 248, 1-[1-Cyclohexyl-2-(2-phenyl-quinoxalin-6-yl)-1H-benzoimidazole-5-carbonyl]-4-hydroxy-pyrrolidine-2-carboxylic acid]
- inhibition at 33 µM: 47.4%
- inhibition at 100 µM: 86.8%

SMILES: O=C(O)c1ccc2c(c1)nc(-c1ccc3ncc(-c4ccccc4)nc3c1)n2C1CCCCC1 [Compound 205, 1-Cyclohexyl-2-(3-phenyl-quinoxalin-6-yl)-1H-benzoimidazole-5-carboxylic acid]
- inhibition at 33 µM: 84.4%
- inhibition at 100 µM: 99%

SMILES: O=C(O)c1ccc2c(c1)nc(-c1ccc3nc(-c4ccccc4Br)c(-c4ccccc4)cc3c1)n2C1CCCCC1 [Compound 424, 2-[2-(2-Bromo-phenyl)-3-phenyl-quinolin-6-yl]-1-cyclohexyl-1H-benzoimidazole-5-carboxylic acid]
- inhibition at 33 µM: 98.7%
- inhibition at 100 µM: 99.1%

SMILES: COc1cc(OC)cc(-c2ccc3cc(-c4nc5cc(C(=O)O)ccc5n4C4CCCCC4)ccc3n2)c1 [Compound 495, 1-cyclohexyl-2-[2-(3,5-dimethoxy-phenyl)-quinolin-6-yl]-1H-benzoimidazole-5-carboxylic acid]
- inhibition at 33 µM: 99.8%
- inhibition at 100 µM: 101%

SMILES: O=C(c1ccc2c(c1)nc(-c1cc3ccc(-c4ccccc4-c4ccccc4)nc3cc1F)n2C1CCCCC1)N1CCC(O)CC1 [Compound 410]
- inhibition at 33 µM: 84.3%
- inhibition at 100 µM: 88.6%

SMILES: O=C(O)c1ccc2c(c1)nc(-c1ccc3nc(C(=O)N(c4ccc(Cl)cc4)C4CCCCC4)ccc3c1)n2C1CCCCC1 [Compound 551, 2-{2-[(4-Chlorophenyl)cyclohexylcarbamoyl]quinolin-6-yl}-1-cyclohexyl-1H-benzimidazole-5-carboxylic acid]
- inhibition at 33 µM: 87.5%
- inhibition at 100 µM: 95.7%

SMILES: Cc1nc(C)c(-c2ccc3cc(-c4nc5cc(C(=O)O)ccc5n4C4CCCCC4)ccc3n2)s1 [Compound 426, 1-cyclohexyl-2-[2-(2,4-dimethyl-thiazol-5-yl)-quinolin-6-yl]-1H-benzoimidazole-5-carboxylic acid]
- inhibition at 33 µM: 96.6%
- inhibition at 100 µM: 102%

SMILES: O=C(O)c1ccc2c(c1)nc(-c1ccc3nc(-c4ccc5c(c4)CCO5)ccc3c1)n2C1CCCCC1 [Compound 478, 1-cyclohexyl-2-[2-(2,3-dihydro-benzofuran-5-yl)-quinolin-6-yl]-1H-benzoimidazole-5-carboxylic acid]
- inhibition at 33 µM: 95.8%
- inhibition at 100 µM: 97.2%

SMILES: Cc1ccc2cc(-c3nc4cc(C(=O)N[C@@H](Cc5c[nH]c6ccc(O)cc56)C(=O)O)ccc4n3C3CCCCC3)ccc2n1 [Compound 230, 2-{[1-Cyclohexyl-2-(2-methyl-quinolin-6-yl)-1H-benzoimidazole-5-carbonyl]-amino}-3-(5-hydroxy-1H-indol-3-yl)-propionic acid]
- inhibition at 33 µM: 92.7%
- inhibition at 100 µM: 98.2%

SMILES: Cc1cc(-c2ccc3cc(-c4nc5cc(C(=O)O)ccc5n4C4CCCCC4)ccc3n2)c(-c2ccccc2)s1 [Compound 472, 1-cyclohexyl-2-[2-(5-methyl-2-phenyl-thiophen-3-yl)-quinolin-6-yl]-1H-benzoimidazole-5-carboxylic acid]
- inhibition at 33 µM: 97.1%
- inhibition at 100 µM: 98.1%

SMILES: NC(=O)c1cc(-c2ccc3cc(-c4nc5cc(C(=O)O)ccc5n4C4CCCCC4)ccc3n2)ccc1O [Compound 374, 2-[2-(3-carbamoyl-4-hydroxy-phenyl)-quinolin-6-yl]-1-cyclohexyl-1H-benzoimidazole-5-carboxylic acid]
- inhibition at 33 µM: 97.6%
- inhibition at 100 µM: 98.3%

SMILES: Cc1nc(-c2ccc(Cl)cc2)sc1-c1ccc2cc(-c3nc4cc(C(=O)O)ccc4n3C3CCCCC3)ccc2n1 [Compound 416, 2-{2-[2-(4-chloro-phenyl)-4-methyl-thiazol-5-yl]-quinolin-6-yl}-1-cyclohexyl-1H-benzoimidazole-5-carboxylic acid]
- inhibition at 33 µM: 101%
- inhibition at 100 µM: 103%

SMILES: O=C(O)c1ccc2c(c1)nc(-c1ccc3nc(-c4ccccc4-c4ccccc4)ccc3c1)n2C1CCCCC1 [Compound 395, 2-(2-biphen-2-yl-quinolin-6-yl)-1-cyclohexyl-1H-benzoimidazole-5-carboxylic acid]
- inhibition at 33 µM: 100%
- inhibition at 100 µM: 101%

SMILES: O=C(O)[C@@H]1CCCN1C(=O)c1ccc2c(c1)nc(-c1ccc3nc(-c4ccccc4)ccc3c1)n2C1CCCCC1 [Compound 233, 1-[1-Cyclohexyl-2-(2-phenyl-quinolin-6-yl)-1H-benzoimidazole-5-carbonyl]-pyrrolidine-2-carboxylic acid]
- inhibition at 33 µM: 50%
- inhibition at 100 µM: 88.2%

SMILES: O=C(O)c1ccc2c(c1)nc(-c1ccc3nc(-c4ccc(Oc5ccc(Cl)cc5)cc4Cl)ccc3c1)n2C1CCCCC1 [Compound 492, 2-{2-[2-chloro-4-(4-chloro-phenoxy)-phenyl]-quinolin-6-yl}-1-cyclohexyl-1H-benzoimidazole-5-carboxylic acid]
- inhibition at 33 µM: 99.2%
- inhibition at 100 µM: 100%

SMILES: COc1ccc(-c2ccc(C(N)=O)cc2)c(-c2ccc3cc(-c4nc5cc(C(=O)O)ccc5n4C4CCCCC4)ccc3n2)c1 [Compound 382, 2-[2-(4′-carbamoyl-4-methoxy-biphen-2-yl)-quinolin-6-yl]-1-cyclohexyl-1H-benzoimidazole-5-carboxylic acid]
- inhibition at 33 µM: 101%
- inhibition at 100 µM: 101%

SMILES: COc1ccc(-c2ccc(Cl)cc2)c(-c2ccc3cc(-c4nc5cc(C(=O)O)ccc5n4C4CCCCC4C)ccc3n2)c1 (centres unmarked) [Compound 556, 2-[2-(4′-Chloro-4-methoxy-biphen-2-yl)-quinolin-6-yl]-1-(2-methyl-cyclohexyl)-1H-benzoimidazole-5-carboxylic acid]
- inhibition at 33 µM: 103%
- inhibition at 100 µM: 102%

SMILES: NCCCC[C@H](NC(=O)c1ccc2c(c1)nc(-c1ccc3nc(-c4ccccc4)ccc3c1)n2C1CCCCC1)C(=O)O [Compound 232, 6-Amino-2-{[1-cyclohexyl-2-(2-phenyl-quinolin-6-yl)-1H-benzoimidazole-5-carbonyl]-amino}-hexanoic acid]
- inhibition at 33 µM: 60.5%
- inhibition at 100 µM: 80.2%

SMILES: Cc1cc(-c2nc3cc(C(=O)O)ccc3n2C2CCCCC2)cc2ccc(-c3ccccc3)nc12 [Compound 397, 1-Cyclohexyl-2-(8-methyl-2-phenyl-quinolin-6-yl)-1H-benzoimidazole-5-carboxylic acid]
- inhibition at 33 µM: 95.6%
- inhibition at 100 µM: 99.3%

SMILES: O=C(O)c1ccc(-c2ccc(Cl)cc2)c(-c2ccc3cc(-c4nc5cc(C(=O)O)ccc5n4C4CCCCC4)ccc3n2)c1 [Compound 415, 2-[2-(4-Carboxy-4′-chloro-biphen-2-yl)-quinolin-6-yl]-1-cyclohexyl-1H-benzoimidazole-5-carboxylic acid]
- inhibition at 33 µM: 101%
- inhibition at 100 µM: 102%

SMILES: Cc1c(OCc2ccccc2)ccc(-c2ccc3cc(-c4nc5cc(C(=O)O)ccc5n4C4CCCCC4)ccc3n2)c1O [Compound 462, 2-[2-(4-benzyloxy-2-hydroxy-3-methyl-phenyl)-quinolin-6-yl]-1-cyclohexyl-1H-benzoimidazole-5-carboxylic acid]
- inhibition at 33 µM: 98.2%
- inhibition at 100 µM: 101%
